According to patent US20190175685A1, “METHODS OF TREATING AND PREVENTING CANCER TREATMENT SIDE EFFECTS” (FILAMENT BIOSOLUTIONS INC., priority 2016, published 2019):
Entries after “also recorded” stand apart in the source; their conditions may differ. Residues, ends and D or L forms follow the SMILES beside them.

Legend:
[1] = Plasma glutamine levels after a single oral gavage dose in rats; assay type: in vivo, male Sprague Dawley rats; settings: for change in plasma glutamine levels versus pre-dose: high, medium and low dose, 3 to 540 minutes after dose, UHPLC/MS/MS
Description: Alanyl-Glutamine and glutamine were administered as a single dose by oral gavage, with deionized water as the vehicle, into male Sprague Dawley rats. The oral gavage of Alanyl-Glutamine and glutamine was administered to different groups at three distinct levels, a high, medium and low dose. Each dose level contained molar equivalent amounts of Glutamine (doses selected to correspond to relevant human doses) so that the resulting changes in plasma Glutamine levels could be directly compared in vivo. The concurrent control group received the vehicle (deionized water) by oral gavage. The dose volume was 20 ml/kg for the oral gavage. Each treatment group consisted of three males. For pharmacokinetic evaluation, blood samples were collected via a jugular vein cannula (JVC) from 3 animals/group/time point prior to dose administration and at 3, 10, 20, 40, 60, 90, 180, 360, and 540 minutes after dose administration. Each sample was analyzed to determine plasma glutamine concentration using a qualified ultra-high performance liquid chromatography mass spectrometry method (UHPLC/MS/MS), developed expressly for the determination of glutamine levels in rat plasma. A subtractive analysis of the plasma levels was then performed, in which the data from each individual animal was subtracted from their pre-dose plasma glutamine levels. The resulting data-points were then averaged for each dosing group and graphed, and represent the change in plasma glutamine after administration of the two different compositions.

[2] = test system: small intestinal crypt survival and regeneration; assay: Intestinal crypt survival after irradiation in a murine model; assay type: in vivo, mice; settings: for number of surviving and regenerating crypts, pre-irradiation treatment versus treatment concurrent with radiation: oral twice daily 0.2 ml, day -5 to +4 compared with day 0 to +4, 13 Gy on day 0, scored day 4 post-irradiation
Text: In this example irradiation was used to target the proliferating clonogenic cells of the crypt. Following irradiation, crypt cells can become impaired and undergo apoptosis, or programmed cell death, resulting in a reduction in the number of viable crypts, which could regenerate and heal the intestinal tissue. The more crypts that are lost the greater the level of ulceration, which can manifest as the symptoms of mucositis. […] This model of crypt cell survival is therefore often used as a surrogate for manifestation of mucositis, e.g., oral mucositis.
In this example the efficacy of orally administered Alanyl-Glutamine (Ala-Gln) and Glutamine (Gln) on small intestinal crypt survival and regeneration and maintenance of villus structure was assessed in response to radiation insult in a murine model. The crypt cells were measured at 4 days post high-dose irradiation, a time at which crypt cells affected by radiation have died and surviving cells begin to regenerate. The level of crypt cell survival at this time directly correlates to severity of ulceration and ultimately animal survival.
Ala-Gln and Gin were administered orally twice daily at a volume of 0.2 ml either pre- and post-irradiation (day −5 to day 4), or post-irradiation alone (day 0 to day 4). The animals were given doses of Ala-Gln at a concentration of 39.65 mg/ml and Gln at a concentration of 26.75 mg/ml, which contain molar equivalent doses of Gin. Vehicle control animals were administered 0.2 ml of water orally twice daily.
Animals were irradiated on day 0 at 3 pm. Irradiation was performed using an XStrahl RS320 X-ray set, operated at 300 Kv, 10 Ma. Radiation was delivered at a dose rate of 0.832 Gy/min using a single uniform dose of 13 Gy radiation. A dosimetry device was placed in the irradiation chamber to confirm the dose received. […]
For each animal in the study, ten intestinal circumferences were analyzed, providing a total of 80 circumferences per treatment group available for analysis. The number of surviving and regenerating crypts per circumference was scored and the average per group was determined.

Compound	change in plasma glutamine levels versus pre-dose [1]	number of surviving and regenerating crypts, pre-irradiation treatment versus treatment concurrent with radiation [2]	plasma glutamine levels, Alanyl-Glutamine versus glutamine at equivalent molar doses ([1]; each of three dose levels (high, middle, low))	average number of crypts, Ala-Gln versus Gln ([2]; groups treated pre-irradiation (-5 to +4), molar equivalent doses of Gln, 13 Gy, scored day 4)
NC(=O)CC[C@H](N)C(=O)O [glutamine, reference compound]	increase in glutamine levels in the plasma at all dose levels	significantly more crypts		
C[C@H](N)C(=O)N[C@@H](CCC(N)=O)C(=O)O [Alanyl-Glutamine, L-alanyl-L-glutamine] (H-Ala-Gln-OH)	increase in glutamine levels in the plasma at all dose levels	significantly more crypts	higher plasma glutamine levels at each dose; also recorded: increased more	higher average number of crypts
